# Results: US20160201067A1, “Composition for Enhancing Transgene Expression in Eukaryotic Cells and Method for Enhancing Production of a Target Protein Encoded by a Transgene” (SILEZIA GROUP PTE. LTD, priority 2013, published 2016)
# Key:
# [1] = tested on: mouse peritoneal macrophages transduced with Ad-GFP; experiment: Enhancement of GFP expression in peritoneal macrophages transduced with Ad-GFP, PRR agonists (Example 4); assay type: cell-based; conditions: Ad-GFP 2 × 10^7 PFU/ml, 4 days
# Description: Mouse peritoneal macrophages (BALB/c female mice, Stolbovaya breeding nursery) were washed with physiological saline solution, pelleted by centrifugation at 1200 rpm for 10 min, suspended in the complete cell culture medium (CCM, consisting of RPMI-1640 medium supplemented with 10% fetal calf serum, 2 mM L-glutamine, 50 μM of (3-mercaptoethanol, and 10 μg/ml of gentamycin) at a concentration of one million cells per 1 ml, and incubated over night in 90 mm Petri dishes at 37° C. and 5% CO2. On the next day, nonadherent cells were removed by washing with warm phosphate buffered saline (PBS, pH 7.4), and adherent cells were covered with Versene solution, kept at 4° C. for 60 min in a refrigerator, and then detached from the culture dish by washing with Versene solution using 5 ml pipette. […] Cell cultures were incubated for 4 days at 37° C. and 5% CO2.
# Confocal microscopy images (FIG. 3A) show macrophages transduced with Ad-GFP and additionally activated by TLR4 agonist (10 μg/ml of APG, right image), as compared to control macrophages transduced with Ad-GFP without addition of APG (left image). […] The quantitative assay of GFP production was carried out using flow cytometry which determined both the absolute number of cells containing GFP and the GFP content in each cell by measuring fluorescence intensity of a single cell. The product of the number of fluorescent cells and the fluorescence intensity of each cell is proportional to the number of synthesized GFP molecules.
# As is described earlier, peritoneal macrophages were transduced with Ad-GFP (2×10^7 PFU/ml) in the absence or presence of one of the above mentioned PRR agonists. Cell cultures were incubated at 37° C. and 5% CO2 for four days. After the end of incubation, cells were detached by washing with a cold Versene solution, and the percentage and absolute number of cells having green fluorescence and the intensity of cell fluorescence were determined using a FACSAria II flow cytometer. The absolute count of cells was normalized by calibration beads containing a known concentration of microspheres (CountBright Invitrogen), and discrimination between live and dead cells was carried out using a DNA-specific dye DAPI. Typical histograms of GFP fluorescence signal after the transduction of macrophages by Ad-GFP without additional activation of cells (FIG. 3D) or with additional activation of cells with CL097, the agonist of TLR7 and TLR8 (FIG. 3E), are shown.
# The quantitative assessment of the enhancement of target GFP expression was performed by the formula:
# K=MFI×N/MFIcontr×Ncontr, (1)
# K is the enhancement (fold increase) of GFP expression;
# MFI is the mean intensity of fluorescence of cells transduced with Ad-GFP with additional activation by an agonist;
# MFIcontr is the mean intensity of fluorescence of cells transduced with Ad-GFP (control) without additional activation;
# N is the number of fluorescent cells after the transduction with Ad-GFP with additional activation by an agonist; and
# Ncontr is the number of fluorescent cells (control) after the transduction with Ad-GFP without additional activation.
# [2] = tested on: mouse peritoneal macrophages; experiment: Enhancement of transgenic SEAP expression in peritoneal macrophages (Example 6); conditions: TNF-α 10 ng/ml or APG 10 μg/ml vs Ad-SEAP alone
# Description: A test liquid was clarified by centrifugation at 14,000 g for 2 min, warmed-up at 65° C. for 5 min to inhibit endogenous phosphatases, then 20 μl aliquots were transferred into each well of a 96-well plate to 130 μl of reaction buffer (0.5 M NaHCO3, 0.5 MM MgCl2, pH 9.8), and incubated at 37° C. for 10 min. Then 50 μl of 60 μM p-nitrophenyl phosphate in reaction buffer were added, and the optical density was measured at 405 nm at fixed intervals. The SEAP activity was expressed in mU/ml, considering 1 mU/ml corresponds to an increase in optical density of 0.04 U per 1 min.
# Mouse peritoneal macrophages were obtained and incubated as described in the example 4. Cells were incubated in triplet culture wells with addition of Ad-GFP at 2×10^7 PFU per well in combination with TNF-α (10 ng/ml) or APG (Russian Patent no. 2195308, 10 μg/ml). In the negative control cultures, macrophages were transduced with Ad-SEAP (2×10^7 PFU) without any cell activating compound. After 4 days, the activity of SEAP was measured in the culture medium, as described in the example 2.
compound,measurement,setting,value
CCOCc1nc2c([nH]1)c(N)nc1ccccc12 [CL097],"Fold increase in the expression of GFP, calculated according to the formula (1), Mean",[1]; agonist 2.5 μg/ml,14.2
Lauroyl-g-D-Glu-D-mDAP and Lauroyl-g-D-Glu-L-mDAP [C12-iE-DAP],"Fold increase in the expression of GFP, calculated according to the formula (1), Mean",[1]; agonist 20 μg/ml,3.1
ODN 1826,"Fold increase in the expression of GFP, calculated according to the formula (1), Mean",[1]; agonist 0.6 μg/ml,1.43
Flagellin,"Fold increase in the expression of GFP, calculated according to the formula (1), Mean",[1]; agonist 1 μg/ml,2.13
"CC(C)Cn1cnc2c(N)nc3ccccc3c21 [Imiquimod, imiquimod]","Fold increase in the expression of GFP, calculated according to the formula (1), Mean",[1]; agonist 10 μg/ml,2.03
lipoteichoic acid [LTA],"Fold increase in the expression of GFP, calculated according to the formula (1), Mean",[1]; agonist 10 μg/ml,2.10
TNF-α,Enhancement coefficient (SEAP expression in peritoneal macrophages),[2],1.8
